This test has as its target T1, ERR1 (also known as ERR-α or ERR-1) (Homo sapiens, UniProt P11474).
T1 sequence (P11474 193-421 limits assumed): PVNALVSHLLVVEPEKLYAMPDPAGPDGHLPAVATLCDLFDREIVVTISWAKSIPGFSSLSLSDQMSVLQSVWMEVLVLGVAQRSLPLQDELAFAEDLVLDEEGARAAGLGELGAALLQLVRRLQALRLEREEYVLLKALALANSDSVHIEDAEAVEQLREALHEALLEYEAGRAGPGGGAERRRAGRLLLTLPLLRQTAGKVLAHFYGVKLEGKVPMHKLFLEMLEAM
Description: TR-FRET assay (disruption of co-activator peptide binding). It is filed as biochemical. The conditions noted are these: 6His-tagged ERR1 LBD, GST-hSRC2 co-activator polypeptide; average of 3 independent experiments. The method in brief:
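His6-ERR1 LBD (6 nM) with GST-SRC-2 peptide (6 nM), anti-GST Eu cryptate (30 nM) and anti-His XL665 (7.5 nM) in Tris pH 8/KCl/DTT/BSA buffer, equilibrated 4-18 h at 25 °C. Ex 340, em 615/665 nm; hyperbolic dose-response fit, mean of 3 experiments.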
(In general: Time-resolved FRET reads energy transfer from a long-lived donor to a nearby acceptor.)

This note sets out measurements from patent US8399681B2, “Substituted aminothiazolone indazoles as estrogen related receptor-alpha modulators” (Janssen Pharmaceutica NV, priority 2009, dated 2013).

Molecule `O=C1N=C(N2CCCN(CCO)CC2)S/C1=C\c1ccc2c(cnn2Cc2ccc(Cl)cc2C(F)(F)F)c1` [Example 76, 5-[1-(4-Chloro-2-trifluoromethyl-benzyl)-1H-indazol-5-ylmethylene]-2-[4-(2-hydroxy-ethyl)-[1,4]diazepan-1-yl]-thiazol-4-one] displayed an EC50 of 0.0183 µM. For `NC1CN(C2=NC(=O)/C(=C/c3ccc4c(cnn4Cc4ccc(C(F)(F)F)cc4C(F)(F)F)c3)S2)C1` [Example 77, 2-(3-Amino-azetidin-1-yl)-5-[1-(2,4-bis-trifluoromethyl-benzyl)-1H-indazol-5-ylmethylene]-thiazol-4-one] the value was 0.0587 µM.

The molecule `CN1C[C@@H]2C[C@H]1CN2C1=NC(=O)/C(=C/c2ccc3c(cnn3Cc3ccc(Cl)cc3C(F)(F)F)c2)S1` [Example 78, 5-[1-(4-Chloro-2-trifluoromethyl-benzyl)-1H-indazol-5-ylmethylene]-2-(5-methyl-2S,5S-diaza-bicyclo[2.2.1]hept-2-yl)-thiazol-4-one] returned an EC50 of 0.0045 µM.

For `NC(=O)CN1CCN(C2=NC(=O)/C(=C/c3ccc4c(cnn4Cc4ccc(Cl)cc4C(F)(F)F)c3)S2)CC1` [Example 79, 2-(4-{5-[1-(4-Chloro-2-trifluoromethyl-benzyl)-1H-indazol-5-ylmethylene]-4-oxo-4,5-dihydro-thiazol-2-yl}-piperazin-1-yl)-acetamide], the EC50 was 0.009 µM. For `O=C1N=C(N2C[C@@H]3C[C@H]2CN3CCO)S/C1=C\c1ccc2c(cnn2Cc2ccc(Cl)cc2C(F)(F)F)c1` [Example 80, 5-[1-(4-Chloro-2-trifluoromethyl-benzyl)-1H-indazol-5-ylmethylene]-2-[5-(2-hydroxy-ethyl)-2S,5S-diaza-bicyclo[2.2.1]hept-2-yl]-thiazol-4-one] the value was 0.0057 µM. As to `CCOCCN1CCN(C2=NC(=O)/C(=C/c3ccc4c(cnn4Cc4ccc(Cl)cc4C(F)(F)F)c3)S2)CC1` [Example 81, 5-[1-(4-Chloro-2-trifluoromethyl-benzyl)-1H-indazol-5-ylmethylene]-2-[4-(2-ethoxy-ethyl)-piperazin-1-yl]-thiazol-4-one], the concentration giving a half-maximal response (EC50) turned out to be 0.0688 µM.

As for `CNC(=O)CN1CCN(C2=NC(=O)/C(=C/c3ccc4c(cnn4Cc4ccc(Cl)cc4C(F)(F)F)c3)S2)CC1` [Example 82, 2-(4-{5-[1-(4-Chloro-2-trifluoromethyl-benzyl)-1H-indazol-5-ylmethylene]-4-oxo-4,5-dihydro-thiazol-2-yl}piperazin-1-yl)-N-methyl-acetamide], it took 0.0076 µM to reach a half-maximal effect (EC50). For `C[C@@H]1CNCCN1C1=NC(=O)/C(=C/c2ccc3c(cnn3Cc3ccc(Cl)cc3C(F)(F)F)c2)S1` [Example 83, 5-[1-(4-Chloro-2-trifluoromethyl-benzyl)-1H-indazol-5-ylmethylene]-2-(2-(R)-methyl-piperazin-1-yl)-thiazol-4-one] the value was 0.015 µM; for `CC(C)(C)N1CCN(C2=NC(=O)/C(=C/c3ccc4c(cnn4Cc4ccc(Cl)cc4C(F)(F)F)c3)S2)CC1` [Example 84, 2-(4-tert-Butyl-piperazin-1-yl)-5-[1-(4-chloro-2-trifluoromethyl-benzyl)-1H-indazol-5-ylmethylene]-thiazol-4-one], 0.039 µM; for `COCCN1C[C@@H]2C[C@H]1CN2C1=NC(=O)/C(=C/c2ccc3c(cnn3Cc3ccc(Cl)cc3C(F)(F)F)c2)S1` [Example 85, 5-[1-(4-Chloro-2-trifluoromethyl-benzyl)-1H-indazol-5-ylmethylene]-2-[5-(2-methoxy-ethyl)-2S,5S-diaza-bicyclo[2.2.1]hept-2-yl]-thiazol-4-one], 0.0086 µM. For `CN1C[C@H]2CC[C@@H](C1)N2C1=NC(=O)/C(=C/c2ccc3c(cnn3Cc3ccc(C(F)(F)F)cc3C(F)(F)F)c2)S1` [Example 86, 5-[1-(2,4-Bis-trifluoromethyl-benzyl)-1H-indazol-5-ylmethylene]-2-(3-methyl-3,8-diaza-bicyclo[3.2.1]oct-8-yl)-thiazol-4-one] the value was 0.02 µM.

Turning to `CN1C[C@H]2CC[C@@H](C1)N2C1=NC(=O)/C(=C/c2ccc3c(cnn3Cc3ccc(Cl)cc3C(F)(F)F)c2)S1` [Example 87, 5-[1-(4-Chloro-2-trifluoromethyl-benzyl)-1H-indazol-5-ylmethylene]-2-(3-methyl-3,8-diaza-bicyclo[3.2.1]oct-8-yl)-thiazol-4-one], the response was half-maximal at 0.015 µM (EC50). For `COCC(=O)N1[C@H](C)CN(C2=NC(=O)/C(=C/c3ccc4c(cnn4Cc4ccc(Cl)cc4C(F)(F)F)c3)S2)C[C@@H]1C` [Example 88, 5-[1-(4-Chloro-2-trifluoromethyl-benzyl)-1H-indazol-5-ylmethylene]-2-[4-(2-methoxy-acetyl)cis-3,5-dimethyl-piperazin-1-yl]-thiazol-4-one] the value was 0.013 µM; for `COCC(=O)N1C[C@@H]2C[C@H]1CN2C1=NC(=O)/C(=C/c2ccc3c(cnn3Cc3ccc(Cl)cc3C(F)(F)F)c2)S1` [Example 89, 5-[1-(4-Chloro-2-trifluoromethyl-benzyl)-1H-indazol-5-ylmethylene]-2-[5-(2-methoxy-acetyl)-2S,5S-diaza-bicyclo[2.2.1]hept-2-yl]-thiazol-4-one], 0.0047 µM. `COCC(=O)N1CCN(C2=NC(=O)/C(=C/c3ccc4c(cnn4Cc4ccc(Cl)cc4C(F)(F)F)c3)S2)[C@H](C)C1` [Example 90, 5-[1-(4-Chloro-2-trifluoromethyl-benzyl)-1H-indazol-5-ylmethylene]-2-[4-(2-methoxy-acetyl)-2-(R)-methyl-piperazin-1-yl]-thiazol-4-one] gave an EC50 of 0.0034 µM. For `COCC(=O)N1CCN(C2=NC(=O)/C(=C/c3ccc4c(cnn4Cc4ccc(Cl)cc4C(F)(F)F)c3)S2)CC1` [Example 91, 5-[1-(4-Chloro-2-trifluoromethyl-benzyl)-1H-indazol-5-ylmethylene]-2-[4-(2-methoxy-acetyl)-piperazin-1-yl]-thiazol-4-one] the value was 0.0087 µM; for `NC1CN(C2=NC(=O)/C(=C/c3ccc4c(cnn4Cc4ccc(Cl)cc4C4CC4)c3)S2)C1` [Example 92, 2-(3-Amino-azetidin-1-yl)-5-[1-(4-chloro-2-cyclopropyl-benzyl)-1H-indazol-5-ylmethylene]-thiazol-4-one], 0.049 µM. For `CN1CCN(C2=NC(=O)/C(=C/c3ccc4c(cnn4Cc4ccc(Cl)cc4C4CC4)c3)S2)CC1` [Example 93, 5-[1-(4-Chloro-2-cyclopropyl-benzyl)-1H-indazol-5-ylmethylene]-2-(4-methyl-piperazin-1-yl)-thiazol-4-one] the value was 0.0144 µM; for `O=C1N=C(N2CC(C(=O)O)C2)S/C1=C\c1ccc2c(cnn2Cc2ccc(Cl)cc2C2CC2)c1` [Example 94, 1-(5-[1-(4-Chloro-2-cyclopropyl-benzyl)-1H-indazol-5-ylmethylene]-4-oxo-dihydro-thiazol-2-yl)-azetidine-3-carboxylic acid], 0.026 µM.

With `CN1CCN(C2=NC(=O)/C(=C/c3ccc4c(cnn4Cc4ccc(Cl)cc4Br)c3)S2)CC1` [Example 95, 5-[1-(2-bromo-4-chlorobenzyl)-1H-indazol-5-ylmethylene]-2-(4-methyl-piperazin-1-yl)-thiazol-4-one], the EC50 came to 0.011 µM. The molecule `CN1CCN(C2=NC(=O)/C(=C/c3ccc4c(cnn4Cc4ccc(Cl)cc4I)c3)S2)CC1` [Example 96, 5-[1-(4-Chloro-2-iodo-benzyl)-1H-indazol-5-ylmethylene]-2-(4-methyl-piperazin-1-yl)-thiazol-4-one] displayed an EC50 of 0.064 µM.

Turning to `CC(=O)c1cc(Cl)ccc1Cn1ncc2cc(/C=C3\SC(N4CCN(C)CC4)=NC3=O)ccc21` [Example 97, 5-[1-(2-Acetyl-4-chloro-benzyl)-1H-indazol-5-ylmethylene]-2-(4-methyl-piperazin-1-yl)-thiazol-4-one], a half-maximal response (EC50) required 0.029 µM.

For the molecule `O=C1N=C(N2C[C@@H](O)[C@H](O)C2)S/C1=C\c1ccc2c(cnn2Cc2ccc(Cl)cc2C(F)(F)F)c1` [Example 99, 5-[1-(4-Chloro-2-trifluoromethyl-benzyl)-1H-indazol-5-ylmethylene]-2-(3R,4R-dihydroxy-pyrrolidin-1-yl)-thiazol-4-one], the EC50 was 0.0028 µM. Compared with the last molecule, the EC50 is about 10-fold lower. `O=C1N=C(N2CC3CC2CN3)S/C1=C\c1ccc2c(cnn2Cc2ccc(Cl)cc2C(F)(F)F)c1` [Example 100, 5-[1-(4-Chloro-2-trifluoromethyl-benzyl)-1H-indazol-5-ylmethylene]-2-(2S,5S-diaza-bicyclo[2.2.1]hept-2-yl)-thiazol-4-one]: the EC50 worked out at 0.014 µM. Molecule `CN1C2CCC1CN(C1=NC(=O)/C(=C/c3ccc4c(cnn4Cc4ccc(Cl)cc4C(F)(F)F)c3)S1)C2` [Example 101, 5-[1-(4-Chloro-2-trifluoromethyl-benzyl)-1H-indazol-5-ylmethylene]-2-(8-methyl-3,8-diaza-bicyclo[3.2.1]oct-3-yl)-thiazol-4-one] had an EC50 of 0.0214 µM. For `O=C1CN(C2=NC(=O)/C(=C/c3ccc4c(cnn4Cc4ccc(Cl)cc4C(F)(F)F)c3)S2)C1` [Example 102, 5-[1-(4-Chloro-2-trifluoromethyl-benzyl)-1H-indazol-5-ylmethylene]-2-(3-oxo-azetidin-1-yl)-thiazol-4-one] the value was 0.022 µM; for `CN1C2CCC1CN(C1=NC(=O)/C(=C/c3ccc4c(cnn4Cc4ccc(C(F)(F)F)cc4C(F)(F)F)c3)S1)C2` [Example 103, 5-[1-(2,4-Bis-trifluoromethyl-benzyl)-1H-indazol-5-ylmethylene]-2-(8-methyl-3,8-diaza-bicyclo[3.2.1]oct-3-yl)-thiazol-4-one], 0.0122 µM.

In general, EC50 refers to the midpoint of the concentration-response curve. Low readings indicate an effect from little substance, high ones a need for much substance.
